How the values were obtained:
[1] = tested on: leech Retzius cells; assay: Capacitative loading in leech Retzius cells; format: cell-based, Hirudo medicinalis; conditions: hyperpolarizing current injection, dye at three times the working concentration
Excerpt: We injected hyperpolarizing current into the Retzius cells of leech ganglia preparations and compared the time constants for these voltage steps in ganglia under different dye loading conditions. The ganglia were stained with dye at three times the working concentration [either VF2.1.Cl or diSBA-C4-(3) (14)] and compared with unloaded cells.
Isolated midbody ganglia (Ganglia 8-16) were dissected from Hirudo medicinalis and the ventral side was desheathed using standard procedures. The voltage sensitive dye was combined with HEPES saline down to the desired concentration (100-300 nM), and 1.5 μL of a 20% (w/v) solution of Pluronic F-127 in DMSO. The dye was then continuously pumped over the ganglion to help with penetration into the cell membranes for 20-30 minutes. […]
Electrophysiological measurements were made with paired electrode recordings with resistances in the range of 20-40 MΩm. Electrode 1 acted as the recording electrode, which constantly monitored membrane potential, and electrode 2 acted as the current injecting electrode. […] The capacitance C was calculated with the formula C=tau*I/ΔV, where I=1 nA and the hyperpolarization ΔV was 15-18 mV. Tau was measured two ways: 1) the time required for the normalized curve to reach (1-1/e); 2) the time constant of the best fit exponential or sum of exponentials. […] Spontaneous Retzius cell activity was measured with a single electrode.

[2] = Absorbance and emission spectra in n-octanol; format: physicochemical
Protocol: VF2.4.Cl features an absorbance spectrum with a λmax in octanol (to simulate cellular membranes) centered at 527 nm (ε527=4×10^4 M^−1 cm^−1). Excitation of VF2.4.Cl at 527 nm results in emission centered at 540 nm (Φ=0.23) (FIG. 3).
UV absorbance and fluorescence spectra were recorded on a Cary 3E (Varian) and Fluorolog 2 (Spex) fluorimeter, respectively. Analytical, semi-preparative, and preparative HPLCs were performed on Agilent HPLCs, with Luna C18(2) columns (Phenomenex) using water (solvent A) and acetonitrile (solvent B) with 0.05% TFA as an additive. Low resolution ESI mass spectrometry was performed on an Agilent LC/MSD Trap XCT coupled to an Agilent HPLC. High resolution mass spectra were acquired on a ThermoFisher Orbitrap XL hybrid mass spectrometer. ^1H NMR spectra were collected in CDCl3 or d6-DMSO (Cambridge Isotope Laboratories, Cambridge, Mass.) at 25° C. on a 400 Varian Mercury Plus or Jeol ECA 500 spectrometer at the Department of Chemistry and Biochemistry NMR Facility at the University of California, San Diego. All chemical shifts are reported in the standard δ notation of parts per million using the peak of residual proton signals of CDCl3 or d6-DMSO as an internal reference.

[3] = tested on: HEK cells; assay: Speed of optical response to voltage steps in HEK cells; format: cell-based, human; conditions: 100 mV step from holding potential −60 mV
Excerpt: Membrane voltage of cells loaded with VF1.4.Cl or VF2.4.Cl were controlled by making tight-seal whole-cell recordings. Cells were maintained at a holding potential of −60 mV and stepped for 50 ms to various depolarizing and hyperpolarizing potentials (FIG. 5A), while simultaneously acquiring epifluorescence images. For both sensors, depolarizing steps result in fluorescence increases while hyperpolarizing steps decrease fluorescence intensity, in keeping with our proposed mechanism. […] For di-4-ANEPPS, typical values are 0.08-0.12% per mV. […] To assess the speed of the optical response to voltage, VF2.4.Cl signals were monitored in response to voltage steps of 100 mV from a holding potential of −60 mV.
We characterized the voltage sensitivity of all three indicators by making tight-seal whole-cell recordings of HEK293 cells stained with the VF sensors. […] For all three dyes, depolarizing steps produced fluorescence increases, whereas hyperpolarizing steps produced fluorescence decreases, in keeping with the proposed PeT mechanism. The fluorescence response is linear over the range of −100 mV to +100 mV (FIG. 9C), with voltage sensitivities ΔF/F per 100 mV of 20±1% for VF1.4.Cl and 25±1% for VF2.4.Cl. […]

| Structure (SMILES) | capacitative load on the membrane [1] | absorbance λmax [2] | Φ [2] | ε527 [2] | emission centered at ([2]; excitation at 527 nm) | τoff, optical [3] | τon, optical [3] |
| --- | --- | --- | --- | --- | --- | --- | --- |
| CN(C)c1ccc(/C=C/c2ccc(/C=C/c3ccc(-c4c5cc(Cl)c(=O)cc-5oc5cc(O)c(Cl)cc45)c(S(=O)(=O)O)c3)cc2)cc1 [VF2.1.Cl, 5-(4-(4-(dimethyllamino)styryl)styryl)-2-(2,7-dichloro-6-hydroxy-3-oxo-3H-xanthen-9-yl)benzenesulfonic acid] | no difference from control cells | – | – | – | – | – | – |
| CCCCN(CCCC)c1ccc(/C=C/c2ccc(/C=C/c3ccc(-c4c5cc(Cl)c(=O)cc-5oc5cc(O)c(Cl)cc45)c(S(=O)(=O)O)c3)cc2)cc1 [VF2.4.Cl, 5-(4-(4-(dibutylamino)styryl)styryl)-2-(2,7-dichloro-6-hydroxy-3-oxo-3H-xanthen-9-yl)benzenesulfonic acid] | – | 527 nm | 0.23 | 40000 M⁻¹ cm⁻¹ | 540 nm | 147±19 μs | 138±14 μs |
